Measured values published in PubChem BioAssay AID2060511 (Molecular Pharmacology Branch, DTP, NCI, 2025).

Test system: 422866-222-R5-J1-PDC spheroids with HUVEC/MSC, viability
Assay: Anticancer human tumor 422866-222-R5-J1-PDC patient-derived pancreatic adenocarcinoma cell line growth inhibition [GQUAD]
Settings: for IC50: curve of first compound; for viability, T/C: stronger effect = lower value
How it was run: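 Tumor cells were grown as complex spheroids with HUVEC endothelial cells and mesenchymal stem cells as stroma. G-quadruplex stabilizers were combined with targeted agents over half-log dilutions from near the clinical Cmax, or from 10 microM.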

[1] = second compound 0.0316 µM, first compound 0.0316 µM
[2] = second compound 0.0316 µM, first compound 0.1 µM
[3] = second compound 0.0316 µM, first compound 0.316 µM
[4] = second compound 0.0316 µM, first compound 1 µM
[5] = second compound 0.0316 µM, first compound 3.16 µM
[6] = second compound 0.0316 µM, first compound 10 µM
[7] = second compound 0.1 µM, first compound 0.0316 µM
[8] = second compound 0.1 µM, first compound 0.1 µM
[9] = second compound 0.1 µM, first compound 0.316 µM
[10] = second compound 0.1 µM, first compound 1 µM
[11] = second compound 0.1 µM, first compound 3.16 µM
[12] = second compound 0.1 µM, first compound 10 µM
[13] = second compound 0.316 µM, first compound 0.0316 µM
[14] = second compound 0.316 µM, first compound 0.1 µM
[15] = second compound 0.316 µM, first compound 0.316 µM
[16] = second compound 0.316 µM, first compound 1 µM
[17] = second compound 0.316 µM, first compound 3.16 µM
[18] = second compound 0.316 µM, first compound 10 µM
[19] = second compound 1 µM, first compound 0.0316 µM
[20] = second compound 1 µM, first compound 0.1 µM
[21] = second compound 1 µM, first compound 0.316 µM
[22] = second compound 1 µM, first compound 1 µM
[23] = second compound 1 µM, first compound 3.16 µM
[24] = second compound 1 µM, first compound 10 µM
[25] = second compound 3.16 µM, first compound 0.0316 µM
[26] = second compound 3.16 µM, first compound 0.1 µM
[27] = second compound 3.16 µM, first compound 0.316 µM
[28] = second compound 3.16 µM, first compound 1 µM
[29] = second compound 3.16 µM, first compound 3.16 µM
[30] = second compound 3.16 µM, first compound 10 µM
[31] = second compound 10 µM, first compound 0.0316 µM
[32] = second compound 10 µM, first compound 0.1 µM
[33] = second compound 10 µM, first compound 0.316 µM
[34] = second compound 10 µM, first compound 1 µM
[35] = second compound 10 µM, first compound 3.16 µM
[36] = second compound 10 µM, first compound 10 µM
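Also: spheroids exposed to compounds for seven days before reading.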
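For viability, T/C in this document: percent viability relative to DMSO vehicle control taken as 100%.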

SMILES: CC1COCCN1c1cc(-c2ccnn2C)c2ccnc(-c3ccn[nH]3)c2n1 (stereo not drawn) + CN(C)c1ccc(Nc2c3ccc(NC(=O)CCN4CCCC4)cc3nc3cc(NC(=O)CCN4CCCC4)ccc23)cc1
- IC50 (second compound 0.0316 µM): > 10000 nM
- IC50 (second compound 0.1 µM): > 10000 nM
- IC50 (second compound 0.316 µM): > 10000 nM
- IC50 (second compound 1 µM): 31.6 nM
- IC50 (second compound 3.16 µM): 31.6 nM
- IC50 (second compound 10 µM): 31.6 nM
- viability, T/C [1]: 88.7%
- viability, T/C [2]: 60.3%
- viability, T/C [3]: 53.2%
- viability, T/C [4]: 46.5%
- viability, T/C [5]: 73.2%
- viability, T/C [6]: 92.6%
- viability, T/C [7]: 92.4%
- viability, T/C [8]: 62.7%
- viability, T/C [9]: 46.2%
- viability, T/C [10]: 36.2%
- viability, T/C [11]: 86.8%
- viability, T/C [12]: 84.2%
- viability, T/C [13]: 86.8%
- viability, T/C [14]: 70.2%
- viability, T/C [15]: 46.7%
- viability, T/C [16]: 39.4%
- viability, T/C [17]: 86.9%
- viability, T/C [18]: 89.3%
- viability, T/C [19]: 73%
- viability, T/C [20]: 52%
- viability, T/C [21]: 37.2%
- viability, T/C [22]: 39.2%
- viability, T/C [23]: 91.2%
- viability, T/C [24]: 71.5%
- viability, T/C [25]: 79%
- viability, T/C [26]: 54.8%
- viability, T/C [27]: 38%
- viability, T/C [28]: 39.7%
- viability, T/C [29]: 81.2%
- viability, T/C [30]: 94.6%
- viability, T/C [31]: 76.8%
- viability, T/C [32]: 52.7%
- viability, T/C [33]: 40.2%
- viability, T/C [34]: 41.4%
- viability, T/C [35]: 83.9%
- viability, T/C [36]: 83.8%

SMILES: Cc1[nH]c2ccccc2c1CCNCc1ccc(/C=C/C(=O)NO)cc1 + Cc1cnc(CNC(=O)c2c(=O)c3ccc(N4CCCN(C)CC4)nc3n3c2sc2ccccc23)cn1
- IC50 (second compound 0.0316 µM): > 316 nM
- IC50 (second compound 0.1 µM): 277 nM
- IC50 (second compound 0.316 µM): > 316 nM
- IC50 (second compound 1 µM): > 316 nM
- IC50 (second compound 3.16 µM): 269 nM
- IC50 (second compound 10 µM): 227 nM
- viability, T/C (second compound 0.0316 µM, first compound 0.000999 µM): 99.8%
- viability, T/C (second compound 0.0316 µM, first compound 0.00316 µM): 94.7%
- viability, T/C (second compound 0.0316 µM, first compound 0.00999 µM): 83.5%
- viability, T/C [1]: 65.8%
- viability, T/C (second compound 0.0316 µM, first compound 0.0999 µM): 77.8%
- viability, T/C [3]: 46.8%
- viability, T/C (second compound 0.1 µM, first compound 0.000999 µM): 91.6%
- viability, T/C (second compound 0.1 µM, first compound 0.00316 µM): 86.7%
- viability, T/C (second compound 0.1 µM, first compound 0.00999 µM): 83.4%
- viability, T/C [7]: 66.6%
- viability, T/C (second compound 0.1 µM, first compound 0.0999 µM): 68%
- viability, T/C [9]: 46.6%
- viability, T/C (second compound 0.316 µM, first compound 0.000999 µM): 79.5%
- viability, T/C (second compound 0.316 µM, first compound 0.00316 µM): 73.9%
- viability, T/C (second compound 0.316 µM, first compound 0.00999 µM): 80.3%
- viability, T/C [13]: 78.8%
- viability, T/C (second compound 0.316 µM, first compound 0.0999 µM): 67.4%
- viability, T/C [15]: 55.9%
- viability, T/C (second compound 1 µM, first compound 0.000999 µM): 75.2%
- viability, T/C (second compound 1 µM, first compound 0.00316 µM): 72.6%
- viability, T/C (second compound 1 µM, first compound 0.00999 µM): 74.3%
- viability, T/C [19]: 62.6%
- viability, T/C (second compound 1 µM, first compound 0.0999 µM): 70.4%
- viability, T/C [21]: 63.7%
- viability, T/C (second compound 3.16 µM, first compound 0.000999 µM): 73.8%
- viability, T/C (second compound 3.16 µM, first compound 0.00316 µM): 78.6%
- viability, T/C (second compound 3.16 µM, first compound 0.00999 µM): 87.4%
- viability, T/C [25]: 78.8%
- viability, T/C (second compound 3.16 µM, first compound 0.0999 µM): 76.1%
- viability, T/C [27]: 45.8%
- viability, T/C (second compound 10 µM, first compound 0.000999 µM): 75.2%
- viability, T/C (second compound 10 µM, first compound 0.00316 µM): 67.8%
- viability, T/C (second compound 10 µM, first compound 0.00999 µM): 68.7%
- viability, T/C [31]: 84.5%
- viability, T/C (second compound 10 µM, first compound 0.0999 µM): 70.3%
- viability, T/C [33]: 41.4%

SMILES: COc1cc(C2c3cc4c(cc3C(OC3OC5COC(C)OC5C(O)C3O)C3COC(=O)C23)OCO4)cc(OC)c1O (stereo not drawn) + Cc1[nH]c2ccc(F)cc2c1-c1nc2c3cccnc3c3ncccc3c2[nH]1
- IC50 (second compound 0.0316 µM): 1570 nM
- IC50 (second compound 0.1 µM): 835 nM
- IC50 (second compound 0.316 µM): 2050 nM
- IC50 (second compound 1 µM): 1920 nM
- IC50 (second compound 3.16 µM): 945 nM
- IC50 (second compound 10 µM): 2230 nM
- viability, T/C [1]: 108%
- viability, T/C [2]: 96.3%
- viability, T/C [3]: 86.6%
- viability, T/C [4]: 51.3%
- viability, T/C [5]: 47.8%
- viability, T/C [6]: 40.2%
- viability, T/C [7]: 100%
- viability, T/C [8]: 104%
- viability, T/C [9]: 68.5%
- viability, T/C [10]: 52%
- viability, T/C [11]: 48.6%
- viability, T/C [12]: 36.6%
- viability, T/C [13]: 97.7%
- viability, T/C [14]: 87.9%
- viability, T/C [15]: 75.2%
- viability, T/C [16]: 56.8%
- viability, T/C [17]: 45.5%
- viability, T/C [18]: 39.8%
- viability, T/C [19]: 97.1%
- viability, T/C [20]: 92.2%
- viability, T/C [21]: 85.8%
- viability, T/C [22]: 59.7%
- viability, T/C [23]: 42.5%
- viability, T/C [24]: 38.5%
- viability, T/C [25]: 82.8%
- viability, T/C [26]: 90.3%
- viability, T/C [27]: 75.5%
- viability, T/C [28]: 48.6%
- viability, T/C [29]: 48.5%
- viability, T/C [30]: 38.5%
- viability, T/C [31]: 87.8%
- viability, T/C [32]: 89.2%
- viability, T/C [33]: 77.4%
- viability, T/C [34]: 56.5%
- viability, T/C [35]: 46.5%
- viability, T/C [36]: 46.8%

SMILES: Nc1ccn(C2OC(CO)C(O)C2(F)F)c(=O)n1 (stereo not drawn) + CN(C)c1ccc(Nc2c3ccc(NC(=O)CCN4CCCC4)cc3nc3cc(NC(=O)CCN4CCCC4)ccc23)cc1
- IC50 (second compound 0.0316 µM): 3230 nM
- IC50 (second compound 0.1 µM): 869 nM
- IC50 (second compound 0.316 µM): 1080 nM
- IC50 (second compound 1 µM): 451 nM
- IC50 (second compound 3.16 µM): 277 nM
- IC50 (second compound 10 µM): > 10000 nM
- viability, T/C [1]: 89.5%
- viability, T/C [2]: 71.6%
- viability, T/C [3]: 74.6%
- viability, T/C [4]: 54.4%
- viability, T/C [5]: 52.5%
- viability, T/C [6]: 41.5%
- viability, T/C [7]: 104%
- viability, T/C [8]: 70.8%
- viability, T/C [9]: 66.5%
- viability, T/C [10]: 43.5%
- viability, T/C [11]: 44.6%
- viability, T/C [12]: 39.2%
- viability, T/C [13]: 91.4%
- viability, T/C [14]: 68.4%
- viability, T/C [15]: 54.4%
- viability, T/C [16]: 57.1%
- viability, T/C [17]: 48.2%
- viability, T/C [18]: 36.5%
- viability, T/C [19]: 72.7%
- viability, T/C [20]: 59%
- viability, T/C [21]: 57.6%
- viability, T/C [22]: 39.6%
- viability, T/C [23]: 41.3%
- viability, T/C [24]: 34.7%
- viability, T/C [25]: 75.6%
- viability, T/C [26]: 67.6%
- viability, T/C [27]: 48.7%
- viability, T/C [28]: 35%
- viability, T/C [29]: 39.4%
- viability, T/C [30]: 39.2%
- viability, T/C [31]: 73.6%
- viability, T/C [32]: 57.9%
- viability, T/C [33]: 57.9%
- viability, T/C [34]: 50.9%
- viability, T/C [35]: 51.8%
- viability, T/C [36]: 49%
